Patent US9936701B2, “Herbicidal compounds” (Syngenta Participations AG, priority 2013, dated 2018)
Values belong to the compound of their own block, whether it stands above or below them.

Key:
[1] = system: a variety of test species; test: Pre-emergence herbicidal activity (glasshouse, sprayed one day after sowing, evaluated after 13 days); assay type: in vivo; design: key: 5=total damage to plant; 0=no damage to plant; details: application pre-emergence, rate 1000 g/Ha, scale 0-5
Procedure, shortened: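 Sow in pots of standard soil; after one day under glasshouse conditions, spray compound (acetone/water 50:50 formulation, 0.5% Tween 20, diluted in water). Grow on at 24/16 °C, 14 h light, 65% humidity with twice-daily watering. Assess at 13 days, 0–5 damage scale.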

[2] = system: a variety of test species; test: Post-emergence herbicidal activity (glasshouse, sprayed after 8 days cultivation, evaluated after 13 days); assay type: in vivo; design: key: 5=total damage to plant; 0=no damage to plant; details: rate 1000 g/Ha, scale 0-5
Procedure, shortened: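 Pot-grown seedlings sprayed 8 days after sowing with active ingredient in acetone/water (50:50) plus 0.5% Tween 20. Glasshouse at 24/16 °C day/night, 14 h light, 65% humidity, watered twice daily. Damage scored after 13 days on a 0–5 scale (5 = total damage, 0 = none).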

melting point: 80 to 82 °C
SMILES: CCCC1=C(Br)C(=O)N(c2cc(C(C)(C)C#N)on2)C1O (stereo not drawn) [A52]
Pre-emergence herbicidal damage score, ABUTH [1]: 5
Pre-emergence herbicidal damage score, ALOMY [1]: 4
Pre-emergence herbicidal damage score, AMARE [1]: 5
Pre-emergence herbicidal damage score, ECHCG [1]: 5
Pre-emergence herbicidal damage score, SETFA [1]: 5
Pre-emergence herbicidal damage score, ZEAMX [1]: 4
ABUTH (Abutilon theophrasti) damage score, application post-emergence [2]: 5
ALOMY (Alopecurus myosuroides) damage score, application post-emergence [2]: 5
AMARE (Amaranthus retroflexus) damage score, application post-emergence [2]: 5
ECHCG (Echinochloa crus-galli) damage score, application post-emergence [2]: 5
SETFA (Setaria faberi) damage score, application post-emergence [2]: 5
ZEAMX (Zea mays) damage score, application post-emergence [2]: 5

melting point: 138 to 140 °C
SMILES: CC1=C(Br)C(=O)N(c2cc(C(C)(C)C#N)on2)C1O (stereo not drawn) [A53]
Pre-emergence herbicidal damage score, ABUTH [1]: 5
Pre-emergence herbicidal damage score, ALOMY [1]: 4
Pre-emergence herbicidal damage score, AMARE [1]: 5
Pre-emergence herbicidal damage score, ECHCG [1]: 5
Pre-emergence herbicidal damage score, SETFA [1]: 5
Pre-emergence herbicidal damage score, ZEAMX [1]: 4
ABUTH (Abutilon theophrasti) damage score, application post-emergence [2]: 5
ALOMY (Alopecurus myosuroides) damage score, application post-emergence [2]: 5
AMARE (Amaranthus retroflexus) damage score, application post-emergence [2]: 5
ECHCG (Echinochloa crus-galli) damage score, application post-emergence [2]: 5
SETFA (Setaria faberi) damage score, application post-emergence [2]: 5
ZEAMX (Zea mays) damage score, application post-emergence [2]: 5

Second part, the compound before the results:

SMILES: CCCC1=C(Cl)C(=O)N(c2noc(C(C)(C)C)c2C#N)C1O (stereo not drawn) [A54]
melting point: 133 to 135 °C
Pre-emergence herbicidal damage score, ABUTH [1]: 5
Pre-emergence herbicidal damage score, ALOMY [1]: 4
Pre-emergence herbicidal damage score, AMARE [1]: 5
Pre-emergence herbicidal damage score, ECHCG [1]: 5
Pre-emergence herbicidal damage score, SETFA [1]: 5
Pre-emergence herbicidal damage score, ZEAMX [1]: 4
ABUTH (Abutilon theophrasti) damage score, application post-emergence [2]: 5
ALOMY (Alopecurus myosuroides) damage score, application post-emergence [2]: 5
AMARE (Amaranthus retroflexus) damage score, application post-emergence [2]: 5
ECHCG (Echinochloa crus-galli) damage score, application post-emergence [2]: 5
SETFA (Setaria faberi) damage score, application post-emergence [2]: 5
ZEAMX (Zea mays) damage score, application post-emergence [2]: 5

SMILES: CCC1=C(Br)C(=O)N(c2noc(C(C)(C)C)c2C#N)C1O (stereo not drawn) [A55]
melting point: 138 to 140 °C
Pre-emergence herbicidal damage score, ABUTH [1]: 5
Pre-emergence herbicidal damage score, ALOMY [1]: 4
Pre-emergence herbicidal damage score, AMARE [1]: 5
Pre-emergence herbicidal damage score, ECHCG [1]: 5
Pre-emergence herbicidal damage score, SETFA [1]: 5
Pre-emergence herbicidal damage score, ZEAMX [1]: 3
ABUTH (Abutilon theophrasti) damage score, application post-emergence [2]: 5
ALOMY (Alopecurus myosuroides) damage score, application post-emergence [2]: 5
AMARE (Amaranthus retroflexus) damage score, application post-emergence [2]: 5
ECHCG (Echinochloa crus-galli) damage score, application post-emergence [2]: 5
SETFA (Setaria faberi) damage score, application post-emergence [2]: 5
ZEAMX (Zea mays) damage score, application post-emergence [2]: 4

SMILES: CCC1=C(Cl)C(=O)N(c2noc(C(C)(C)C)c2C#N)C1O (stereo not drawn) [A58]
melting point: 134 to 136 °C
Pre-emergence herbicidal damage score, ABUTH [1]: 5
Pre-emergence herbicidal damage score, ALOMY [1]: 4
Pre-emergence herbicidal damage score, AMARE [1]: 5
Pre-emergence herbicidal damage score, ECHCG [1]: 5
Pre-emergence herbicidal damage score, SETFA [1]: 5
Pre-emergence herbicidal damage score, ZEAMX [1]: 4
ABUTH (Abutilon theophrasti) damage score, application post-emergence [2]: 5
ALOMY (Alopecurus myosuroides) damage score, application post-emergence [2]: 5
AMARE (Amaranthus retroflexus) damage score, application post-emergence [2]: 5
ECHCG (Echinochloa crus-galli) damage score, application post-emergence [2]: 5
SETFA (Setaria faberi) damage score, application post-emergence [2]: 5
ZEAMX (Zea mays) damage score, application post-emergence [2]: 5

SMILES: CCC1=C(Cl)C(=O)N(c2noc(C(C)(C)CC)c2C#N)C1O (stereo not drawn) [A60]
melting point: 110 to 112 °C
Pre-emergence herbicidal damage score, ABUTH [1]: 5
Pre-emergence herbicidal damage score, ALOMY [1]: 3
Pre-emergence herbicidal damage score, AMARE [1]: 5
Pre-emergence herbicidal damage score, ECHCG [1]: 4
Pre-emergence herbicidal damage score, SETFA [1]: 5
Pre-emergence herbicidal damage score, ZEAMX [1]: 3
ABUTH (Abutilon theophrasti) damage score, application post-emergence [2]: 5
ALOMY (Alopecurus myosuroides) damage score, application post-emergence [2]: 4
AMARE (Amaranthus retroflexus) damage score, application post-emergence [2]: 5
ECHCG (Echinochloa crus-galli) damage score, application post-emergence [2]: 5
SETFA (Setaria faberi) damage score, application post-emergence [2]: 5
ZEAMX (Zea mays) damage score, application post-emergence [2]: 2
